Measurements published in the NIST ThermoML archive (doi:10.1021/je060271a).

Conditions: 343.15 K, Liquid, Vibrating tube method

CCCCCC(=O)OCC(COC(=O)CCCCC)(COC(=O)CCCCC)COC(=O)CCCCC [pentaerythritol tetrahexanoate]
Conditions | mass density [kg/m3]
5696.7 kPa | 961.3
5737.4 kPa | 961.4
5771.4 kPa | 961.4
5805.5 kPa | 961.6
5839.7 kPa | 961.6
5880 kPa | 961.6
5913.7 kPa | 961.6
5948.1 kPa | 961.5
5988.1 kPa | 961.6
6021.6 kPa | 961.7
6055.8 kPa | 961.8
6095.9 kPa | 961.7
6130 kPa | 961.7
6163.7 kPa | 961.6
6303.4 kPa | 962.1
6343 kPa | 961.7
6375.6 kPa | 961.9
6408.1 kPa | 961.9
6440.4 kPa | 961.9
6478.6 kPa | 962.1
6509.9 kPa | 962
6541 kPa | 962.1
6572.6 kPa | 962.1
6608.9 kPa | 962.2
6752.3 kPa | 962.2
6777.5 kPa | 962.2
6802.4 kPa | 962.2
6831.3 kPa | 962.4
6854.2 kPa | 962.2
6882.2 kPa | 962.3
6906 kPa | 962.3
6930.2 kPa | 962.3
6953.5 kPa | 962.4
6977.2 kPa | 962.4
7001.2 kPa | 962.4
7029.7 kPa | 962.4
7054.1 kPa | 962.6
7078.2 kPa | 962.6
7102.1 kPa | 962.5
7130.7 kPa | 962.4
7154.9 kPa | 962.5
7179.4 kPa | 962.5
7208.3 kPa | 962.6
7233.7 kPa | 962.6
7260 kPa | 962.6
7284.4 kPa | 962.6
7309.2 kPa | 962.7
7338.6 kPa | 962.7
7363.8 kPa | 962.7
7388.9 kPa | 962.6
7418.5 kPa | 962.7
7443.8 kPa | 962.8
7469 kPa | 962.8
7499.3 kPa | 962.8
7524.9 kPa | 962.8
7767.9 kPa | 962.9
7799 kPa | 963
7825.1 kPa | 963.1
7851.3 kPa | 962.9
7877.7 kPa | 963.1
7909.5 kPa | 963.1
7936.7 kPa | 963
7963.5 kPa | 963.3
7989.9 kPa | 963.2
8021.4 kPa | 963.1
8047.9 kPa | 963.1
8074.4 kPa | 963.2
8105.7 kPa | 963.3
8131.9 kPa | 963.3
8158.1 kPa | 963.4
8189.5 kPa | 963.3
8215.6 kPa | 963.3
8242.5 kPa | 963.3
8269.2 kPa | 963.4
8301.8 kPa | 963.4
8328.6 kPa | 963.3
8355.6 kPa | 963.5
8382.4 kPa | 963.3
8415.2 kPa | 963.5
8442.4 kPa | 963.4
8469.3 kPa | 963.5
8502.3 kPa | 963.5
8646.3 kPa | 963.7
8736.5 kPa | 963.7
8764.6 kPa | 963.7
8798.5 kPa | 963.7
8827.2 kPa | 963.9
8855.8 kPa | 963.7
8890.1 kPa | 963.9
8919.1 kPa | 963.8
8953.7 kPa | 964
8982.7 kPa | 963.9
9012.2 kPa | 963.9
9047.3 kPa | 964
9077.3 kPa | 963.9
9107.5 kPa | 964
9137.5 kPa | 964
9173.3 kPa | 964
9362.4 kPa | 964.1
9399.5 kPa | 964.2
9430.7 kPa | 964.2
9462.9 kPa | 964.2
9496.5 kPa | 964.2
9527.5 kPa | 964.2
9565.2 kPa | 964.4
9800.6 kPa | 964.4
11008 kPa | 965.5
11050 kPa | 965.3
11087 kPa | 965.3
11123 kPa | 965.3
11159 kPa | 965.4
11202 kPa | 965.4
11238 kPa | 965.5
11274 kPa | 965.6
11701 kPa | 965.7
11736 kPa | 965.9
11778 kPa | 965.9
11813 kPa | 965.9
11848 kPa | 966
11889 kPa | 965.9
11924 kPa | 965.9
11958 kPa | 966
11998 kPa | 966.1
12031 kPa | 966.2
12159 kPa | 966.1
12190 kPa | 966.2
12236 kPa | 966.3
12264 kPa | 966.2
12287 kPa | 966.4
12310 kPa | 966.3
12337 kPa | 966.4
12361 kPa | 966.4
12383 kPa | 966.3
12808 kPa | 966.7
12827 kPa | 966.7
12842 kPa | 966.7
12857 kPa | 966.7
12873 kPa | 966.7
12892 kPa | 966.7
12909 kPa | 966.7
12927 kPa | 966.8
12989 kPa | 966.8
13011 kPa | 966.7
13039 kPa | 966.9
13064 kPa | 967
